Columns and labels:
[1] = system: Surinam grass; assay: Test B pre-/postemergence herbicide test; format: in vivo, Urochloa decumbens; conditions: for Plant response rating (0 to 100 scale), Surinam Grass: 0 is no effect
In short: (§1)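 Test chemicals in a non-phytotoxic solvent mixture with surfactant were applied preemergence to seeded species and postemergence to plants 2-18 cm tall (1- to 4-leaf stage); rice and barnyardgrass were also tested in a flooded paddy at the 2-leaf stage. Visual rating versus controls after 13-15 days in greenhouse, scale 0 (no effect) to 100 (complete control).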

[2] = system: pigweed; assay: Test B pre-/postemergence herbicide test; format: in vivo, Amaranthus retroflexus; conditions: for Plant response rating (0 to 100 scale), Pigweed: 0 is no effect
In short: as §1

[3] = system: velvetleaf; assay: Test B pre-/postemergence herbicide test; format: in vivo, Abutilon theophrasti; conditions: for Plant response rating (0 to 100 scale), Velvetleaf: 0 is no effect
In short: as §1

[4] = system: barnyardgrass; assay: Test B pre-/postemergence herbicide test; format: in vivo, Echinochloa crus-galli; conditions: for Plant response rating (0 to 100 scale), Barnyardgrass: 0 is no effect
In short: (§2)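 Herbicidal effect was judged by eye on a 0–100 scale after plants stood 13 to 15 days in the greenhouse following pre- or postemergence treatment with surfactant-containing formulations.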

[5] = system: lambsquarters; assay: Test B pre-/postemergence herbicide test; format: in vivo, Chenopodium album; conditions: for Plant response rating (0 to 100 scale), Lambsquarters: 0 is no effect
In short: as §1

[6] = system: corn; assay: Test B pre-/postemergence herbicide test; format: in vivo, Zea mays; conditions: for Plant response rating (0 to 100 scale), Corn: 0 is no effect
In short: as §1

[7] = system: rice; assay: Test B flooded paddy test; format: in vivo, Oryza sativa; conditions: 1000 g ai/ha, scale 0 to 100 (0 no effect, 100 complete control)
In short: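 Paddy species grown to the 2-leaf stage under flooding; blackgrass sprayed postemergence at 2–18 cm (1- to 4-leaf stage). Plants kept in a greenhouse for 13 to 15 days, then visually rated against controls on 0 (no effect) to 100 (complete control).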

[8] = system: large crabgrass; assay: Test B pre-/postemergence herbicide test; format: in vivo, Digitaria sanguinalis; conditions: for Plant response rating (0 to 100 scale), Crabgrass, Large: 0 is no effect
In short: as §1

[9] = system: barnyardgrass; assay: Test B flooded paddy test; format: in vivo, Echinochloa crus-galli; conditions: 1000 g ai/ha, scale 0 to 100 (0 no effect, 100 complete control)
In short: (§3)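 Treated at 2-leaf (paddy) or 1–4-leaf, 2–18 cm (postemergence); greenhouse 13–15 d; visual score vs control, 0 none to 100 complete control; dash = not tested.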

[10] = system: wild oat; assay: Test B postemergence herbicide test; format: in vivo, Avena fatua
In short: (§4)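 Formulated test chemicals went onto postemergence plants measuring 2 to 18 cm, at one to four leaves. For the paddy assay, species had reached two leaves. Scoring took place 13–15 days later by eye, relative to untreated plants, using 0 for no effect up to 100 for full control.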

[11] = system: ducksalad; assay: Test B flooded paddy test; format: in vivo, Heteranthera limosa; conditions: 1000 g ai/ha, scale 0 to 100 (0 no effect, 100 complete control)
In short: as §3

[12] = system: giant foxtail; assay: Test B pre-/postemergence herbicide test; format: in vivo, Setaria faberi; conditions: for Plant response rating (0 to 100 scale), Foxtail, Giant: 0 is no effect
In short: as §1

[13] = system: morningglory; assay: Test B pre-/postemergence herbicide test; format: in vivo, Ipomoea coccinea; conditions: for Plant response rating (0 to 100 scale), Morningglory: 0 is no effect
In short: as §2

[14] = system: cocklebur; assay: Test B pre-/postemergence herbicide test; format: in vivo, Xanthium strumarium; conditions: for Plant response rating (0 to 100 scale), Cocklebur: 0 is no effect
In short: as §2

[15] = system: wheat; assay: Test B postemergence herbicide test; format: in vivo, Triticum aestivum; design: key to Wheat plant response rating: 0 = no effect, 100 = complete control
In short: as §4

[16] = 125 g ai/ha, 100 is complete control, preemergence
[17] = 125 g ai/ha, visual rating, scale 0 (no effect) to 100 (complete control), postemergence
[18] = Postemergence, 500 g ai/ha, scale 0 (no effect) to 100 (complete control)
[19] = postemergence, 500 g ai/ha, scale 0 to 100, 0 is no effect, 100 is complete control
[20] = 500 g ai/ha, scale 0 to 100, 0 no effect, 100 complete control, preemergence
[21] = 125 g ai/ha, 0 = no effect, 100 = complete control, preemergence
[22] = 500 g ai/ha, visual rating, 0 = no effect, 100 = complete control, preemergence
[23] = postemergence, 125 g ai/ha, scale 0 to 100

C=CCNC(=O)c1cccc(NC(=O)c2nn(C(C)C)nc2CC)c1 [Compound 382]
Plant response rating (0 to 100 scale), Surinam Grass [1, 16]: 50
Surinam Grass plant response rating [1, 17]: 10
Surinam Grass plant response rating [1, 18]: 10
Plant response rating (0 to 100 scale), Pigweed [2, 16]: 50
Pigweed plant response rating [2, 17]: 30
Pigweed plant response rating [2, 18]: 40
Plant response rating (0 to 100 scale), Velvetleaf [3, 16]: 10
Velvetleaf plant response rating [3, 17]: 10
Velvetleaf plant response rating [3, 18]: 20
Plant response rating (0 to 100 scale), Barnyardgrass [4, 16]: 80
Barnyardgrass plant response rating [4, 17]: 0
Barnyardgrass plant response rating [4, 19]: 0
Plant response rating (0 to 100 scale), Lambsquarters [5, 16]: 100
Lambsquarters plant response rating [5, 17]: 50
Lambsquarters plant response rating [5, 18]: 70
Plant response rating (0 to 100 scale), Corn [6, 16]: 0
Corn plant response rating [6, 17]: 0
Corn plant response rating [6, 19]: 0
Rice plant response rating [7]: 80
Plant response rating (0 to 100 scale), Crabgrass, Large [8, 16]: 80
Crabgrass, Large plant response rating [8, 17]: 10
Crabgrass, Large plant response rating [8, 19]: 10
Barnyardgrass plant response rating [9]: 80
Oat, Wild plant response rating [10, 17]: 10
Oat, Wild plant response rating [10, 18]: 20
Ducksalad plant response rating [11]: 80
Plant response rating (0 to 100 scale), Foxtail, Giant [12, 16]: 80
Foxtail, Giant plant response rating [12, 17]: 0
Foxtail, Giant plant response rating [12, 19]: 10
Plant response rating (0 to 100 scale), Morningglory [13, 16]: 10
Morningglory plant response rating [13, 17]: 20
Morningglory plant response rating [13, 18]: 60
Plant response rating (0 to 100 scale), Cocklebur [14, 16]: 0
Cocklebur plant response rating [14, 17]: 10
Cocklebur plant response rating [14, 19]: 10
Wheat plant response rating [15, 17]: 0
Wheat plant response rating [15, 20]: 80
Wheat plant response rating [15, 18]: 10

CCn1nc(C2(C)CC2)cc1C(=O)Nc1cc(C(=O)N2CC=CC2)ccc1F [Compound 301]
Surinam Grass plant response rating (0 to 100 scale) [1, 21]: 90
Surinam Grass plant response rating [1, 17]: 10
Plant response rating, Surinam Grass [1, 22]: 100
Surinam Grass plant response rating [1, 19]: 30
Pigweed plant response rating (0 to 100 scale) [2, 21]: 100
Pigweed plant response rating [2, 17]: 80
Plant response rating, Pigweed [2, 22]: 100
Pigweed plant response rating [2, 19]: 90
Velvetleaf plant response rating [3, 17]: 30
Plant response rating, Velvetleaf [3, 22]: 100
Velvetleaf plant response rating [3, 19]: 100
Barnyardgrass plant response rating (0 to 100 scale) [4, 21]: 60
Barnyardgrass plant response rating [4, 17]: 20
Plant response rating, Barnyardgrass [4, 22]: 100
Barnyardgrass plant response rating [4, 19]: 60
Lambsquarters plant response rating (0 to 100 scale) [5, 21]: 100
Lambsquarters plant response rating [5, 17]: 70
Plant response rating, Lambsquarters [5, 22]: 100
Lambsquarters plant response rating [5, 19]: 80
Corn plant response rating (0 to 100 scale) [6, 21]: 0
Corn plant response rating [6, 17]: 50
Plant response rating, Corn [6, 22]: 10
Corn plant response rating [6, 19]: 50
Rice plant response rating [7]: 90
Crabgrass, Large plant response rating (0 to 100 scale) [8, 21]: 100
Crabgrass, Large plant response rating [8, 17]: 20
Plant response rating, Crabgrass, Large [8, 22]: 100
Crabgrass, Large plant response rating [8, 19]: 60
Barnyardgrass plant response rating [9]: 90
Oat, Wild plant response rating [10, 17]: 20
Oat, Wild plant response rating [10, 19]: 40
Ducksalad plant response rating [11]: 90
Foxtail, Giant plant response rating (0 to 100 scale) [12, 21]: 70
Foxtail, Giant plant response rating [12, 17]: 10
Plant response rating, Foxtail, Giant [12, 22]: 90
Foxtail, Giant plant response rating [12, 19]: 20
Morningglory plant response rating (0 to 100 scale) [13, 21]: 10
Morningglory plant response rating [13, 17]: 60
Plant response rating, Morningglory [13, 22]: 80
Morningglory plant response rating [13, 19]: 90
Cocklebur plant response rating (0 to 100 scale) [14, 21]: 0
Cocklebur plant response rating [14, 17]: 10
Plant response rating, Cocklebur [14, 22]: 0
Cocklebur plant response rating [14, 19]: 50
Wheat plant response rating [15, 17]: 10
Wheat plant response rating [15, 19]: 20

CCn1nc(C(C)(C)C)cc1C(=O)Nc1cccc(OS(=O)(=O)CC)c1 [Compound 408]
Plant response rating (0 to 100 scale), Surinam Grass [1, 16]: 30
Surinam Grass plant response rating [1, 18]: 30
Surinam Grass plant response rating [1, 23]: 20
Plant response rating (0 to 100 scale), Pigweed [2, 16]: 100
Pigweed plant response rating [2, 18]: 100
Pigweed plant response rating [2, 23]: 90
Plant response rating (0 to 100 scale), Velvetleaf [3, 16]: 50
Velvetleaf plant response rating [3, 18]: 70
Velvetleaf plant response rating [3, 23]: 30
Plant response rating (0 to 100 scale), Barnyardgrass [4, 16]: 70
Barnyardgrass plant response rating ([4]; Postemergence, 125 g ai/ha, scale 0 (no effect) to 100 (complete control)): 20
Barnyardgrass plant response rating [4, 18]: 40
Plant response rating (0 to 100 scale), Lambsquarters [5, 16]: 100
Lambsquarters plant response rating [5, 18]: 100
Lambsquarters plant response rating [5, 23]: 90
Plant response rating (0 to 100 scale), Corn [6, 16]: 10
Corn plant response rating [6, 18]: 10
Corn plant response rating [6, 23]: 10
Rice plant response rating [7]: 80
Plant response rating (0 to 100 scale), Crabgrass, Large [8, 16]: 90
Crabgrass, Large plant response rating [8, 18]: 50
Crabgrass, Large plant response rating [8, 23]: 30
Barnyardgrass plant response rating [9]: 70
Oat, Wild plant response rating [10, 18]: 50
Oat, Wild plant response rating [10, 23]: 30
Ducksalad plant response rating [11]: 90
Plant response rating (0 to 100 scale), Foxtail, Giant [12, 16]: 40
Foxtail, Giant plant response rating [12, 18]: 50
Foxtail, Giant plant response rating [12, 23]: 30
Plant response rating (0 to 100 scale), Morningglory [13, 16]: 20
Morningglory plant response rating [13, 18]: 30
Morningglory plant response rating [13, 23]: 10
Plant response rating (0 to 100 scale), Cocklebur [14, 16]: 0
Cocklebur plant response rating [14, 18]: 70
Cocklebur plant response rating [14, 23]: 60
Wheat plant response rating [15, 20]: 80
Wheat plant response rating [15, 18]: 30
Wheat plant response rating [15, 23]: 20

From patent US20060069132A1, “Azolecarboxamide herbicides” (priority 2004, published 2006)
